Experimental data: patent US12447153B2, “HER2 mutation inhibitors” (Array BioPharma Inc., priority 2021, dated 2025)
pIC50: −log10 of the molar value.

What was measured:
[1] = target: ErbB2 with Exon 20 YVMA insertion (HER2-YVMA) (Homo sapiens (Human), UniProt P04626, INS775YVMA); assay: Cellular Phosphorylation Assay, Assay 4 (constitutive ErbB2 phosphorylation, NIH 3T3 cells); assay type: cell-based
EGFR = EGFR (Homo sapiens (Human), UniProt P00533); assay: ErbB Enzyme Assay (HTRF KinEASE-TK), Assay 3; assay type: biochemical
EGFR, sequence (P00533 25-1210): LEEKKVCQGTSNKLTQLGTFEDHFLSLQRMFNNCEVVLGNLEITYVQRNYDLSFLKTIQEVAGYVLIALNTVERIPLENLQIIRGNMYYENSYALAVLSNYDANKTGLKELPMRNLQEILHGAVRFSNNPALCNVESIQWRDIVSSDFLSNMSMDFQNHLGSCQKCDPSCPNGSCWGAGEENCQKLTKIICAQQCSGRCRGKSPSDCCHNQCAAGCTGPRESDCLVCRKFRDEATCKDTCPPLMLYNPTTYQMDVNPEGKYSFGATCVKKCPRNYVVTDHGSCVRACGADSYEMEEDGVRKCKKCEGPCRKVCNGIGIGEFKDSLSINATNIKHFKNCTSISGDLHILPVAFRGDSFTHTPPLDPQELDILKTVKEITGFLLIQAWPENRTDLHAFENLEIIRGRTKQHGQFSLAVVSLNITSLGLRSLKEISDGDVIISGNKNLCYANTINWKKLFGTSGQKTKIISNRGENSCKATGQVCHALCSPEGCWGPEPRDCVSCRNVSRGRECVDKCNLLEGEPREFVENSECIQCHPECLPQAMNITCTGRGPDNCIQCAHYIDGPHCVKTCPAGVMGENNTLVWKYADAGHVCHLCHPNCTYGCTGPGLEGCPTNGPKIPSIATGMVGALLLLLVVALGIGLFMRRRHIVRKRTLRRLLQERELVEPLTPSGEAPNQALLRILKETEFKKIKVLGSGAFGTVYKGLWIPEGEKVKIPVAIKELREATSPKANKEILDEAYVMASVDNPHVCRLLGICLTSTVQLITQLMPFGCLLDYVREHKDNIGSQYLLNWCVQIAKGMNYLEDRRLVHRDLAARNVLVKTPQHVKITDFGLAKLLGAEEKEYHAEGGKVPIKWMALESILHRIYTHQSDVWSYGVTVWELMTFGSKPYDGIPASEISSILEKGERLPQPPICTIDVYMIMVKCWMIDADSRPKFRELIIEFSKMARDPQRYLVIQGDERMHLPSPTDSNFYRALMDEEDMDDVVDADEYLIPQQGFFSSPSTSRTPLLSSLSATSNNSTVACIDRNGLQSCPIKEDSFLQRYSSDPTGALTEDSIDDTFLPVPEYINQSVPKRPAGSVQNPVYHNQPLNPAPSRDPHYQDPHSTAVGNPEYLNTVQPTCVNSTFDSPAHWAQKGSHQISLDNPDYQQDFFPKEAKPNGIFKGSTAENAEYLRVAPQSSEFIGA

BCRP = BCRP (Homo sapiens (Human), UniProt Q9UNQ0); assay: BCRP MDCKII efflux assay (Assay 7); assay type: in vitro ADME; conditions: dog; efflux ratio Papp(B-A)/Papp(A-B), BCRP MDCKII cells; read-out: Assay 7 Pe Ratio
Experimental: Assay conditions included with and without the BCRP-specific inhibitor, KO143, at a concentration of 0.3 μM to ascertain the contribution of BCRP to the efflux value of the test compound.
Final organic concentration in the assay was 1%.

EGFR wild type (EGFR WT) = EGFR wild type (EGFR WT) (Homo sapiens (Human), UniProt P00533); assay: Cellular Phosphorylation Assay, Assay 5 (EGF-stimulated EGFR phosphorylation, NIH 3T3 cells); assay type: cell-based
EGFR wild type (EGFR WT), sequence (P00533 25-1210): as above

ErbB2 WT = ErbB2 WT (Homo sapiens (Human), UniProt P04626); assay: ErbB Enzyme Assay (HTRF KinEASE-TK), Assay 2; assay type: biochemical
ErbB2 WT, sequence (P04626 23-1255): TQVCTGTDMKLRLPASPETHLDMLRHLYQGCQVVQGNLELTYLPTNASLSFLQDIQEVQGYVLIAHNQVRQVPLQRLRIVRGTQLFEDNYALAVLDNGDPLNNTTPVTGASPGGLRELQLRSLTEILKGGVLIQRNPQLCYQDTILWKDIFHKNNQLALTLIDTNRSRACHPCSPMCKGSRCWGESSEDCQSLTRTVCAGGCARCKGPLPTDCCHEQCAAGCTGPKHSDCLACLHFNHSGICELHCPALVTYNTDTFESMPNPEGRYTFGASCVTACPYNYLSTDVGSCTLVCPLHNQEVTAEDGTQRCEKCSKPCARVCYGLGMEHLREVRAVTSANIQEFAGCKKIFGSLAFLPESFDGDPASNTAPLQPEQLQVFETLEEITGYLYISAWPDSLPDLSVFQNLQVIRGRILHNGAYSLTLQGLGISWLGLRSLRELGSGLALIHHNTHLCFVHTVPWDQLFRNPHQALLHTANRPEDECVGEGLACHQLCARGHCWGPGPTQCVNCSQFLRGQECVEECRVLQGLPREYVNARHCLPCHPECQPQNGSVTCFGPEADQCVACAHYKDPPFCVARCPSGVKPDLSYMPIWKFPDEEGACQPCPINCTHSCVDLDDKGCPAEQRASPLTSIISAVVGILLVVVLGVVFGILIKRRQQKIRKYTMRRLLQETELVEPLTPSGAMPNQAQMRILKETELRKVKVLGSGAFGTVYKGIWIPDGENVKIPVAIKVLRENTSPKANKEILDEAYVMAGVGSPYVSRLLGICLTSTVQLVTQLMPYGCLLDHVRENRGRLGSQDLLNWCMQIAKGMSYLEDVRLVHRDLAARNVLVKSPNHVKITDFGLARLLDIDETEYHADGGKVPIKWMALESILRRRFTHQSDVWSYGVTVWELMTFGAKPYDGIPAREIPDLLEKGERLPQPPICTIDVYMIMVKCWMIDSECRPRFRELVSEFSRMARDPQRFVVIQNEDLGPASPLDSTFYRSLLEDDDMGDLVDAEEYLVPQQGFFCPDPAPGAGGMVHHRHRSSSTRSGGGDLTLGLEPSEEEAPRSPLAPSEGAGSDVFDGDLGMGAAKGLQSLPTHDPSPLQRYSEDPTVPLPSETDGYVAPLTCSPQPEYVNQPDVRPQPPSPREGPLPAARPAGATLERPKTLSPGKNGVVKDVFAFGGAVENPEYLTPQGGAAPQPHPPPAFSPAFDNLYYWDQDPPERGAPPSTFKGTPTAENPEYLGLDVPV

[2] = EGF-stimulated EGFR WT phosphorylation
[3] = cellular ErbB2 YVMA phosphorylation
[4] = cellular EGFR WT phosphorylation, EGF-stimulated

ErbB2 with Exon 20 YVMA insertion (HER2-YVMA), sequence (P04626 other isoform, or with tags, fused parts or gaps ins YVMA behind 775): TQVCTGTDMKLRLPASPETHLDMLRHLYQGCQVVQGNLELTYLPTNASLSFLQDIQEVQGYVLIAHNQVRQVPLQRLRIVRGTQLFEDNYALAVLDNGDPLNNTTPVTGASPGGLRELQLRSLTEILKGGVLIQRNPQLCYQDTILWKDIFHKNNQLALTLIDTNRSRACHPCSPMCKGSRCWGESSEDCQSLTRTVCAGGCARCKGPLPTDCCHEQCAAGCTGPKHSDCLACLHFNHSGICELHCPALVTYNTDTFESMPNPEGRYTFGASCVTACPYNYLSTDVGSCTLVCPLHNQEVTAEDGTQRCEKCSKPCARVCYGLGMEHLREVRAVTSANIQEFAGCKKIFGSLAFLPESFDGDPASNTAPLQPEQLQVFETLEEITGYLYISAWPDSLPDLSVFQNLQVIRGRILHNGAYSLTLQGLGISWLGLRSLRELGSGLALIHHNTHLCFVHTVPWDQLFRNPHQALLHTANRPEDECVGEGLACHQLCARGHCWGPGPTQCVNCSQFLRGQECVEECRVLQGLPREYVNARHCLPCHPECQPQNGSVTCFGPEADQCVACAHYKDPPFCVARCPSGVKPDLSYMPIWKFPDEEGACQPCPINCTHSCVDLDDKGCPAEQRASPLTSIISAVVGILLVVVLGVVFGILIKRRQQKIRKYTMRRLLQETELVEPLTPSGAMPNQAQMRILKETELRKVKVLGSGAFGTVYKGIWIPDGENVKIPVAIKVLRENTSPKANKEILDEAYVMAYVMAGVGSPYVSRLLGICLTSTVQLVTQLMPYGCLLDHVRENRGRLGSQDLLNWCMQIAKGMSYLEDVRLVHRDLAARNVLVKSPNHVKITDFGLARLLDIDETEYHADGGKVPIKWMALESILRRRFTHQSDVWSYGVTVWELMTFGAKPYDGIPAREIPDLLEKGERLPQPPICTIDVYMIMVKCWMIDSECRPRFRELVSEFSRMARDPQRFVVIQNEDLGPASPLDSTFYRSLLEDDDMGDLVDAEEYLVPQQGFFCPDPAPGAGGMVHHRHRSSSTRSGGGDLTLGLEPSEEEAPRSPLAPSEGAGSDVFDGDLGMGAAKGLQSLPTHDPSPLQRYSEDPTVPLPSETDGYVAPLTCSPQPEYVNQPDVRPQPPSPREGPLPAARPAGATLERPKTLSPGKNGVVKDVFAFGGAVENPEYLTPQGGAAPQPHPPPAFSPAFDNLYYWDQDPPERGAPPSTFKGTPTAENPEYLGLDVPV

Row | Compound | pIC50 ([1]; ErbB2 YVMA phosphorylation) | pIC50 (EGFR; EGFR enzyme) | efflux ratio at 2 h, 1 µM (BCRP) | pIC50 (EGFR wild type (EGFR WT); [2]) | pIC50 (ErbB2 WT; ErbB2 WT enzyme) | pIC50 [1, 3] | pIC50 (EGFR; EGFR enzyme assay) | pIC50 (EGFR wild type (EGFR WT); [4]) | pIC50 (ErbB2 WT; ErbB2 WT enzyme assay)
1 | C=CC(=O)N1CCC2CN(c3ccc4ncnc(Nc5ccc(Oc6ccn7ncnc7c6)c(Cl)c5)c4n3)CC21 (stereo not drawn) [Example 70, 1-(5-(4-((4-([1,2,4]triazolo[1,5-a]pyridin-7-yloxy)-3-chlorophenyl)amino)pyrido[3,2-d]pyrimidin-6-yl)hexahydropyrrolo[3,4-b]pyrrol-1(2H)-yl)prop-2-en-1-one] | 7.67 | 5.53 | 41.8 | ≤ 5.30 | 8.00 | – | – | – | –
2 | C=CC(=O)N1C[C@@H]2C[C@H]1CN2c1ccc2ncnc(Nc3cc(Cl)c(Oc4ccn5ncnc5c4)cc3F)c2n1 [Example 80, 1-((1S,4S)-5-(4-((4-([1,2,4]triazolo[1,5-a]pyridin-7-yloxy)-5-chloro-2-fluorophenyl)amino)pyrido[3,2-d]pyrimidin-6-yl)-2,5-diazabicyclo[2.2.1]heptan-2-yl)prop-2-en-1-one] | 8.39 | 6.66 | 12.4 | 6.61 | 7.77 | – | – | – | –
3 | C=CC(=O)N1CCC(c2ccc3ncnc(Nc4ccc(Oc5ccc6c(c5)ncn6C)c(C)c4F)c3n2)CC1 [Example 146, 1-(4-(4-((2-fluoro-3-methyl-4-((1-methyl-1H-benzo[d]imidazol-5-yl)oxy)phenyl)amino)pyrido[3,2-d]pyrimidin-6-yl)piperidin-1-yl)prop-2-en-1-one] | 7.44 | 5.59 | 4.3 | ≤ 5.30 | 7.80 | – | – | – | –
4 | C=CC(=O)N1C[C@H]2CC[C@@H]1C[C@@H]2c1ccc2ncnc(Nc3cc(C)c(Oc4cnc5c(c4)ncn5C)cc3F)c2n1 [Example 420] | – | – | 2.5 | – | – | 7.47 | ≤ 5.00 | ≤ 5.30 | 6.54
5 | C=CC(=O)N1CCC(c2ccc3ncnc(Nc4ccc(Oc5cnc6c(c5)ncn6C)c(C)c4)c3n2)CC1 [Example 273] | – | – | 15.3 | – | – | 7.59 | 5.25 | ≤ 5.30 | 7.12
6 | C=CC(=O)N1CCCN(c2ccc3ncnc(Nc4ccc(Oc5ccn6ncnc6c5)c(Cl)c4F)c3n2)CC1 [Example 98, 1-(4-(4-((4-([1,2,4]triazolo[1,5-a]pyridin-7-yloxy)-3-chloro-2-fluorophenyl)amino)pyrido[3,2-d]pyrimidin-6-yl)-1,4-diazepan-1-yl)prop-2-en-1-one] | 7.72 | 5.47 | 11 | 5.57 | 7.29 | – | – | – | –
7 | C=CC(=O)N1CC[C@H]2C[C@H](c3ccc4ncnc(Nc5ccc(Oc6ccn7ncnc7c6)c(C)c5)c4n3)C[C@H]21 [Example 383] | – | – | 9.5 | – | – | 7.76 | 6.01 | 6.31 | 7.90
8 | C=CC(=O)N1CCN(c2ccc3ncnc(Nc4ccc(Oc5cc(F)c6c(c5)ncn6C)c(C)c4)c3n2)CC1(C)C [Example 277] | – | – | 7.3 | – | – | 7.90 | 6.00 | 6.01 | 7.63
9 | C=CC(=O)N1CCN(c2ccc3ncnc(Nc4ccc(Oc5ccc6c(c5)ncn6C)c(C)c4F)c3n2)CC1(C)C [Example 75, 1-(4-(4-((2-fluoro-3-methyl-4-((1-methyl-1H-benzo[d]imidazol-5-yl)oxy)phenyl)amino)pyrido[3,2-d]pyrimidin-6-yl)-2,2-dimethylpiperazin-1-yl)prop-2-en-1-one] | 7.86 | ≤ 5.00 | 3.8 | ≤ 5.30 | 7.19 | – | – | – | –
10 | C=CC(=O)N1CCN(c2ccc3ncnc(Nc4ccc(Oc5cnc6c(c5)ncn6C)c(C)c4)c3n2)CC1 [Example 110, 1-(4-(4-((3-methyl-4-((3-methyl-3H-imidazo[4,5-b]pyridin-6-yl)oxy)phenyl)amino)pyrido[3,2-d]pyrimidin-6-yl)piperazin-1-yl)prop-2-en-1-one] | 8.30 | 5.21 | 84.4 | 5.60 | 7.24 | – | – | – | –
11 | C=CC(=O)N1CC[C@H]2CN(c3ccc4ncnc(Nc5cc(C)c(Oc6ccn7ncnc7c6)cc5F)c4n3)C[C@H]21 [Example 26, 1-((3aS,6aS)-5-(4-((4-([1,2,4]triazolo[1,5-a]pyridin-7-yloxy)-2-fluoro-5-methylphenyl)amino)pyrido[3,2-d]pyrimidin-6-yl)hexahydropyrrolo[3,4-b]pyrrol-1(2H)-yl)prop-2-en-1-one] | 7.69 | ≤ 5.00 | 8.3 | ≤ 5.30 | 6.92 | – | – | – | –
12 | C=CC(=O)N1CCN(c2ccc3ncnc(Nc4ccc(Oc5ccc6c(c5)ncn6C)c(Cl)c4)c3n2)CC1 [Example 72, 1-(4-(4-((3-chloro-4-((1-methyl-1H-benzo[d]imidazol-5-yl)oxy)phenyl)amino)pyrido[3,2-d]pyrimidin-6-yl)piperazin-1-yl)prop-2-en-1-one] | 8.33 | 6.06 | 15.4 | 6.29 | 8.06 | – | – | – | –
13 | C=CC(=O)N1CCN(c2ccc3ncnc(Nc4ccc(Oc5cc(F)c6c(c5)ncn6C)c(C)c4)c3n2)C[C@H]1CC [Example 282] | – | – | 7.6 | – | – | 7.84 | 5.63 | 5.91 | 7.89
14 | C=CC(=O)N1C[C@H]2CC[C@@H]1CN2c1ccc2ncnc(Nc3ccc(Oc4cnc5c(c4)ncn5C)c(C)c3F)c2n1 [Example 236, 1-((1R,4R)-5-(4-((2-fluoro-3-methyl-4-((3-methyl-3H-imidazo[4,5-b]pyridin-6-yl)oxy)phenyl)amino)pyrido[3,2-d]pyrimidin-6-yl)-2,5-diazabicyclo[2.2.2]octan-2-yl)prop-2-en-1-one] | 7.61 | ≤ 5.00 | 6.8 | ≤ 5.30 | 5.93 | – | – | – | –
15 | C=CC(=O)N1CCCN(c2ccc3ncnc(Nc4ccc(Oc5cnc6c(c5)ncn6C)c(Cl)c4)c3n2)CC1 [Example 113, 1-(4-(4-((3-chloro-4-((3-methyl-3H-imidazo[4,5-b]pyridin-6-yl)oxy)phenyl)amino)pyrido[3,2-d]pyrimidin-6-yl)-1,4-diazepan-1-yl)prop-2-en-1-one] | 7.52 | ≤ 5.00 | 37.5 | ≤ 5.30 | 6.73 | – | – | – | –
16 | C=CC(=O)N1CCN(c2ccc3ncnc(Nc4cc(Cl)c(Oc5ccn6ncnc6c5)cc4F)c3n2)CC1 [Example 81, 1-(4-(4-((4-([1,2,4]triazolo[1,5-a]pyridin-7-yloxy)-5-chloro-2-fluorophenyl)amino)pyrido[3,2-d]pyrimidin-6-yl)piperazin-1-yl)prop-2-en-1-one] | 8.02 | 5.03 | 17.4 | ≤ 5.30 | 7.48 | – | – | – | –
17 | C=CC(=O)N1[C@@H]2CC[C@H]1C[C@@H](c1ccc3ncnc(Nc4ccc(Oc5cnc6c(c5)ncn6C)c(C)c4)c3n1)C2 [Example 219, 1-((1R,3r,5S)-3-(4-((3-methyl-4-((3-methyl-3H-imidazo[4,5-b]pyridin-6-yl)oxy)phenyl)amino)pyrido[3,2-d]pyrimidin-6-yl)-8-azabicyclo[3.2.1]octan-8-yl)prop-2-en-1-one] | 7.70 | 5.44 | 9.3 | ≤ 5.30 | 6.95 | – | – | – | –
18 | C=CC(=O)N1C[C@H](c2ccc3ncnc(Nc4cc(C)c(Oc5ccc6c(c5)ncn6C)cc4F)c3n2)C[C@H]1C [Example 192, 1-((2R,4R)-4-(4-((2-fluoro-5-methyl-4-((1-methyl-1H-benzo[d]imidazol-5-yl)oxy)phenyl)amino)pyrido[3,2-d]pyrimidin-6-yl)-2-methylpyrrolidin-1-yl)prop-2-en-1-one] | 7.66 | ≤ 5.00 | 2.1 | ≤ 5.30 | 6.88 | – | – | – | –
19 | C=CC(=O)N1CC(c2ccc3ncnc(Nc4ccc(Oc5ccn6ncnc6c5)c(C)c4F)c3n2)C1 [Example 280] | – | – | 8.7 | – | – | 7.68 | 5.68 | 5.72 | 7.30
20 | C=CC(=O)N1CC(Sc2ccc3ncnc(Nc4ccc(Oc5ccn6ncnc6c5)c(C)c4F)c3n2)C1 [Example 63, 1-(3-((4-((4-([1,2,4]triazolo[1,5-a]pyridin-7-yloxy)-2-fluoro-3-methylphenyl)amino)pyrido[3,2-d]pyrimidin-6-yl)thio)azetidin-1-yl)prop-2-en-1-one] | 7.71 | 6.29 | 3.8 | 6.37 | 7.50 | – | – | – | –
21 | C=CC(=O)N1[C@@H]2CC[C@H]1C[C@H](c1ccc3ncnc(Nc4ccc(Oc5ccc6c(c5)ncn6C)c(C)c4F)c3n1)C2 [Example 195, 1-((1R,3s,5S)-3-(4-((2-fluoro-3-methyl-4-((1-methyl-1H-benzo[d]imidazol-5-yl)oxy)phenyl)amino)pyrido[3,2-d]pyrimidin-6-yl)-8-azabicyclo[3.2.1]octan-8-yl)prop-2-en-1-one] | 7.75 | 5.59 | 1.7 | 5.97 | 7.22 | – | – | – | –
